Assay results published in US8778643B2, “Methods for increasing lipid levels and producing triacylglycerols in algae” (priority 2012, dated 2014).
Read-outs that look alike come from different tables or passages of the source.

Assays:
Nannochloropsis sp. = test: Microplate assay: increase of lipid production (Table 17); assay type: cell-based; conditions: best conc. 2.4 nM
Text: We also tested a collection with more antioxidants, kinase inhibitors, and further compounds for increase of lipid production with N. salina, P. tricornutum, N. oculata, and Nannochloropsis sp.

[1] = test system: Phaeodactylum tricornutum; test: Microplate assay: growth (absorbance 680 nm) and intracellular lipids (Nile Red fluorescence); assay type: cell-based
Nannochloris sp. = test: as above; assay type: cell-based; conditions: microplate assay, multiple concentrations
Nannochloropsis salina = conditions: microplate assay, multiple concentrations
Experimental: Stock cultures were aerated by stirring with bubbling air (homemade manifold with Petco air pump, 2-4% CO2) or by orbital shaking (Thermo Scientific MAXQ 2000) at a constant speed of 150 rpm at 22±3° C. with a 16:8 hour light/dark cycle. Stocks were kept at stationary phase for use. Algae were prepared as dictated by culture center.
Compounds were selected based on reported biological activity in non-microalgae organisms. To ensure that compounds retained their quality, they were stored under advised conditions after purchasing from the manufacturer. Solutions of all assay compounds were prepared as 10 mM stock solutions by dissolving in DMSO in 2-dram amber vials and then stored in darkness −20° C. 96-well PCR plates were used to create a stock plate layout that was then transferred to the algae microplates. A plate map was used to distribute each compound to a well based on molecule name, collection number, and CAS number. For 20 μM and 200 nM assay plates, 10 mM compound stock in DMSO was diluted into plate maps of 5 mM and 50 μM assay stocks, respectively.
All materials for assay experiments were autoclaved before each use to maintain axenic algae cultures. Algae species were checked for homogeneity using a TS-100 light microscope (Nikon, Japan). […] Diluted stock solutions were made immediately prior to use for consistency and optimal plate growth. Cell density was measured on a Thermo Scientific Genesys 10S Vis Spectrophotometer (ThermoFisher, San Jose), using a 1 mL cuvette at 680 nm.
Plates were originally run in triplicate, before replicates were increased to quadruplicate, along with a separate control plate to compare growth. Due to extensive evaporation in exterior wells over time, our unique algae plate layout was designed to use the 60 interior wells out of 96 wells for the experiment. The 36 outer wells were filled with Millipore water and media to prevent evaporation and edge effects in the inner algae wells, as well as serve as blanks. The 60 wells with algae contained a total volume of 251 μL (100 μL of media+DMSO compound stock +150 μL dilute algae stock). For 20 μM and 200 nM assay plates, 10 mM compound stock in DMSO is diluted into plate maps of 5 mM and 50 μM assay stocks, respectively. […] Plates were parafilmed during growth to limit the amount of evaporation that can occur. Plates were numbered, and numerically ordered to ensure they got the same shaker space.
The shakers are kept at a constant shaking of 150 rpm. Ambient temperature is 22±3° C.

Nannochloropsis oculata = conditions: microplate assay, multiple concentrations
FABI = conditions: cited from earlier work
Cdk2/cyclin A = Cdk2/cyclin A (Homo sapiens, UniProt P24941); conditions: CDK2/A; cited from earlier work
CDK4/cyclin D1 = CDK4/cyclin D1 (Homo sapiens, UniProt P11802); conditions: cited from earlier work
Sequence of CDK4/cyclin D1 (P11802 whole entry, species assumed): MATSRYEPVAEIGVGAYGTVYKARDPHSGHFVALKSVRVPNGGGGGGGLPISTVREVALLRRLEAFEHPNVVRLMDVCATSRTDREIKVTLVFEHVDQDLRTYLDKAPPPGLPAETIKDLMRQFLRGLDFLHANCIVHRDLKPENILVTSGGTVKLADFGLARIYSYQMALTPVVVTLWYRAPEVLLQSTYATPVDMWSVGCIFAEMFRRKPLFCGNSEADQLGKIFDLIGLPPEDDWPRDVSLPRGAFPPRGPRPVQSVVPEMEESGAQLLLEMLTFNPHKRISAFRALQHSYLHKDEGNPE
Sequence of CDK4/cyclin D1 (P24385 whole entry partner, species assumed): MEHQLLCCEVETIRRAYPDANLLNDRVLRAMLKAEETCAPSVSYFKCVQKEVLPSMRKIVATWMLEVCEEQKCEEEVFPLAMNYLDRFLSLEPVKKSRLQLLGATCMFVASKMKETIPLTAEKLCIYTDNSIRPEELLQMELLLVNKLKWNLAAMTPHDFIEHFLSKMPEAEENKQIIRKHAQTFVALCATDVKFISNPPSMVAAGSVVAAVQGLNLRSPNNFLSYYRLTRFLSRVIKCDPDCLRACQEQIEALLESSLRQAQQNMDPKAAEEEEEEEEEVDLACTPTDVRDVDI

## Cc1c(C)c2c(c(C)c1O)CC[C@@](C)(CCC[C@H](C)CCC[C@H](C)CCCC(C)C)O2 (racemic) [DL-α-Tocopherol (Vitamin E), (2R)-2,5,7,8-tetramethyl-2-[(4R,8R)-4,8,12-trimethyltridecyl]-3,4-dihydrochromen-6-ol]
Nannochloropsis sp.
  % Inc: 31.44%

## O=C(O[C@@H]1Cc2c(O)cc(O)cc2O[C@@H]1c1ccc(O)c(O)c1)c1cc(O)c(O)c(O)c1 [(−)-epicatechin gallate, [(2R,3R)-2-(3,4-dihydroxyphenyl)-5,7-dihydroxy-3,4-dihydro-2H-chromen-3-yl] 3,4,5-trihydroxybenzoate]
[1]; increase of lipid production, P. tricornutum, best conc. 156 nM
  % Inc: 77.89%
[1]; microplate assay, multiple concentrations
  effect on lipid production / lipid levels: lipid production increased
[1]; microplate, catechin screen (FIG. 14)
  concentration of the highest lipid increase: 39 to 56 nM
Nannochloris sp.
  effect on lipid production / lipid levels: lipid production increased
Nannochloropsis salina
  effect on lipid production / lipid levels: lipid production increased
Nannochloropsis oculata
  effect on lipid production / lipid levels: lipid production increased
FABI
  IC50: 200 nM

## O=C1NC(=O)c2c1c1c3ccccc3[nH]c1c1[nH]c3cc(Br)ccc3c21 [CDK4 Inhibitor 3, 2-Bromo-12,13-dihydro-5H-indolo[2,3a]pyrrolo[3,4-c]carbazole-5,7(6H)-dione]
Cdk2/cyclin A
  IC50: > 200000 nM
CDK4/cyclin D1; CDK4/D1
  IC50: 6000 nM

## COc1ccc(OC)c2c(=S)c3ccccc3[nH]c12 [CDK4 Inhibitor II NSC]
CDK4/cyclin D1; CDK4/cyclin D1
  IC50: 200 nM
